In brackets after ≈: the same amount, converted by molar mass.
The molecules below were run on Mycobacterium tuberculosis (assay: Antimycobacterial activity against Mycobacterium tuberculosis H37Rv at 6.25 ug/ml).
Type: functional

| SMILES | inhibition at 6.25 µg/mL [%] |
| --- | --- |
| CC(=O)/C(=N/Nc1c(C)n[nH]c1C)C(=O)O | 29 |
| COCC(=O)/C(=N/Nc1c(C)n[nH]c1C)C(=O)OC | 28 |

Each molecule was assayed on Mycobacterium tuberculosis (assay: Antimycobacterial activity against Mycobacterium tuberculosis H37Rv by agar dilution method).
Type: functional

| SMILES | MIC [µg/mL] |
| --- | --- |
| Clc1ccc(S/C=C(\c2ccc3ccccc3c2)n2cc(Sc3ccc(Cl)cc3)c(-c3ccc4ccccc4c3)n2)cc1 | 6.25 (≈ 9.89 µM) |
| Clc1ccc(S/C=C(/c2ccc3ccccc3c2)n2cc(Sc3ccc(Cl)cc3)c(-c3ccc4ccccc4c3)n2)cc1 | 12.5 (≈ 19.8 µM) |
| Clc1ccc(S/C=C(/c2ccc(Cl)cc2)n2cc(Sc3ccc(Cl)cc3)c(-c3ccc(Cl)cc3)n2)cc1 | 3.13 (≈ 5.21 µM) |
| Clc1ccc(S/C=C(/c2ccccc2)n2cc(Sc3ccc(Cl)cc3)c(-c3ccccc3)n2)cc1 | > 25 |
| C(/SC1CCCCC1)=C(\c1ccccc1)n1cc(SC2CCCCC2)c(-c2ccccc2)n1 | 12.5 (≈ 26.3 µM) |
| Cc1ccc(/C(=C/SC2CCCCC2)n2cc(SC3CCCCC3)c(-c3ccc(C)cc3)n2)cc1 | 6.25 (≈ 12.4 µM) |
| COc1ccc(/C(=C/SC2CCCCC2)n2cc(SC3CCCCC3)c(-c3ccc(OC)cc3)n2)cc1 | 12.5 (≈ 23.4 µM) |
| O=[N+]([O-])c1ccc(/C(=C/SC2CCCCC2)n2cc(SC3CCCCC3)c(-c3ccc([N+](=O)[O-])cc3)n2)cc1 | 1.56 (≈ 2.76 µM) |
| Clc1ccc(S/C=C(\c2ccc(Cl)cc2)n2cc(Sc3ccc(Cl)cc3)c(-c3ccc(Cl)cc3)n2)cc1 | 1.56 (≈ 2.6 µM) |
| COc1ccc(/C(=C\Sc2ccc(Cl)cc2)n2cc(Sc3ccc(Cl)cc3)c(-c3ccc(OC)cc3)n2)cc1 | 6.25 (≈ 10.6 µM) |
| Clc1ccc(S/C=C(\c2ccccc2)n2cc(Sc3ccc(Cl)cc3)c(-c3ccccc3)n2)cc1 | 12.5 (≈ 23.5 µM) |
| Cc1ccc(/C(=C\Sc2ccc(Cl)cc2)n2cc(Sc3ccc(Cl)cc3)c(-c3ccc(C)cc3)n2)cc1 | 6.25 (≈ 11.2 µM) |
| Cc1ccc(S/C=C(\c2ccc(Cl)cc2)n2cc(Sc3ccc(C)cc3)c(-c3ccc(Cl)cc3)n2)cc1 | 12.5 (≈ 22.3 µM) |
| Clc1ccc(/C(=C\Sc2ccccc2)n2cc(Sc3ccccc3)c(-c3ccc(Cl)cc3)n2)cc1 | 25 (≈ 47 µM) |
| C(/SC1CCCCC1)=C(/c1ccccc1)n1cc(SC2CCCCC2)c(-c2ccccc2)n1 | 6.25 (≈ 13.2 µM) |
| Cc1ccc(/C(=C\SC2CCCCC2)n2cc(SC3CCCCC3)c(-c3ccc(C)cc3)n2)cc1 | 3.13 (≈ 6.23 µM) |
| COc1ccc(/C(=C\SC2CCCCC2)n2cc(SC3CCCCC3)c(-c3ccc(OC)cc3)n2)cc1 | 3.13 (≈ 5.85 µM) |
| Clc1ccc(/C(=C\SC2CCCCC2)n2cc(SC3CCCCC3)c(-c3ccc(Cl)cc3)n2)cc1 | 1.56 (≈ 2.87 µM) |
| O=[N+]([O-])c1ccc(/C(=C\SC2CCCCC2)n2cc(SC3CCCCC3)c(-c3ccc([N+](=O)[O-])cc3)n2)cc1 | 0.78 (≈ 1.38 µM) |
| Clc1ccc(/C(=C/Sc2ccccc2)n2cc(Sc3ccccc3)c(-c3ccc(Cl)cc3)n2)cc1 | > 25 |
| Cc1ccc(S/C=C(/c2ccc(Cl)cc2)n2cc(Sc3ccc(C)cc3)c(-c3ccc(Cl)cc3)n2)cc1 | 12.5 (≈ 22.3 µM) |
| CC[C@@H](CO)NCCN[C@@H](CC)CO [ETHAMBUTOL] | 1.56 (≈ 7.64 µM) |
| NNC(=O)c1ccncc1 [ISONIAZID] | 0.05 (≈ 0.365 µM) |
| NC(=O)c1cnccn1 [PYRAZINAMIDE] | 6.25 (≈ 50.8 µM) |

Reference: ChEMBL document CHEMBL1287691, “Pyrazole derivatives from azines of substituted phenacyl aryl/cyclohexyl sulfides and their antimycobacterial activity” (2010)
